For series [1] the following is noted: rodents and apes; cited from earlier work.
The conditions of series [2]: 2200 μg/kg, mouse; cited from earlier work.
A short description of series [3]: Dose escalation study of αGalCer. The class given is in vivo. An excerpt: There is a little, if ever, chance to show a slight systemic side effect (Giaccone et al., Clin. Cancer Res., 8: 3702, 2002).
The conditions of series [4]: clinical trial, systemic administration; cited from earlier work.

SMILES strings stand for the structures.

Take `CCCCCCCCCCCCCCCCCCCCCCCCCC(=O)N[C@@H](CO[C@H]1O[C@H](CO)[C@H](O)[C@H](O)[C@H]1O)[C@H](O)[C@H](O)CCCCCCCCCCCCCC` [αGalCer, Alpha-galactosylceramide]: the toxicity entry in series [1] is “doesn't seem to induce toxicity”. The side effects entry in series [2] is “No side effects”. Moreover, in series [3], the dose-limiting toxicity result is “did not cause dose-limiting toxicity”. For the same molecule, in series [4], the side effect entry was “a light headache”.

The values above are taken from US8003093B2, “B cell-based vaccine loaded with the ligand of natural killer T cell and antigen” (Seoul National University Industry Foundation, priority 2006, dated 2011).
